Key:
Format in all cases: cell-based
[1] = tested on: hedgehog pathway (pGL3-7xGli-Luciferase reporter in C3H10T1/2 cells); assay: Transient transfection of C3H10T1/2 and Gli-Luc reporter assay with SAG stimulation; settings: Mus musculus, C3H 10T1/2, SAG 20 nM, 48 hr, read-out: Inhibition of Gli-Luc expression [IC50
Summary of the method: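 C3H10T1/2 cells were transiently transfected with a 7xGli-firefly luciferase reporter and a TK-Renilla control, then treated with serially diluted compounds plus 20 nM SAG in 0.5% FBS for 48 h at 37 °C. Firefly signal was normalized to Renilla and scaled between DMSO with SAG (100%) and without SAG (0%). IC50 was obtained by nonlinear regression.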

Smo wild type = target: T1, Smo wild type (Homo sapiens, UniProt Q99835); assay: Reporter assay of C3H10T1/2-Gli-Luc cells transfected with wild-type Smo, without SAG; settings: C3H10T1/2 cells transfected with pLPCX-SMO, no SAG, 48 hr; read-out: Inhibition of C3H10T1/2-Gli-Luc-Smo-WT [IC50
T1 construct: expressed in transfected cells; host or cells: C3H10T1/2 cells (ATCC CCL-226), transient transfection with pLPCX-SMO
T1 sequence (Q99835 28-787): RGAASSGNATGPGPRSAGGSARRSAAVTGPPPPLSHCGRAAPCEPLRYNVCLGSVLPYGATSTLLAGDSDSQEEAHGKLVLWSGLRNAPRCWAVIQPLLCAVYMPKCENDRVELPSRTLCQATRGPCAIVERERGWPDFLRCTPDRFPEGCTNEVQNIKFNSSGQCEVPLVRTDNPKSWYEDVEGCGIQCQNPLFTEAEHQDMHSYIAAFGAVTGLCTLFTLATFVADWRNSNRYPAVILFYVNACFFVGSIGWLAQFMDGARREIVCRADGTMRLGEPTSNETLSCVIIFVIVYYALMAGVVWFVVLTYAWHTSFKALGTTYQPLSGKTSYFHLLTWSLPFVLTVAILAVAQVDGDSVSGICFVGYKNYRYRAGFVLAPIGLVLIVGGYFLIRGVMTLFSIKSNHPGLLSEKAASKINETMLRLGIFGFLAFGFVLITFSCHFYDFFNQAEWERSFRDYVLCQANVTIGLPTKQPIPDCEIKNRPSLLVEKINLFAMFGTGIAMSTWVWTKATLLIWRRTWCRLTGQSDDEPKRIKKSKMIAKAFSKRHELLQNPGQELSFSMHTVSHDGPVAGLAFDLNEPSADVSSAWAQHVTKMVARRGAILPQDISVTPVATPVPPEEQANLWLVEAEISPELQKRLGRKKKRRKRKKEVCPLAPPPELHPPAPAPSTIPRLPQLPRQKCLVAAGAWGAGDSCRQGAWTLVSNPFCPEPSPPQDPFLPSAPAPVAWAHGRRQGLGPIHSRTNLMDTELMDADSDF
Summary of the method: (§1)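 C3H10T1/2-Gli-Luc cells transiently transfected with wild-type or D473H SMO, replated in 0.5% FBS RPMI and incubated with compounds 48 h at 37 °C without SAG. Dual-luciferase, firefly normalized to Renilla; scaled to DMSO (100%) and 10 μM ALLO-2 (0%); IC50 by nonlinear regression.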

Smo D473H mutant = target: T2, Smo D473H mutant (Homo sapiens, UniProt Q99835, D473H); assay: Reporter assay of C3H10T1/2-Gli-Luc cells transfected with Smo D473H mutant, without SAG; settings: C3H10T1/2 cells transfected with pLPCX-SMO-D473H, no SAG, 48 hr; read-out: Inhibition of C3H10T1/2-Gli-Luc-Smo-D473H [IC50
T2 construct: expressed in transfected cells; host or cells: C3H10T1/2 cells (ATCC CCL-226), transient transfection with pLPCX-SMO-D473H
T2 sequence (Q99835 28-787 D473H): as the sequence (Q99835 28-787) above, with D446H counted along it
Summary of the method: as §1

SMILES | IC50 [1] [µM] | IC50 (Smo wild type) [µM] | IC50 (Smo D473H mutant) [µM]
CSc1cnc(Nc2ccc(C(=O)Nc3cc(CN4CCOCC4)ccc3C)cc2)nc1-c1ccc(C#N)cc1 [Compound 33, 4-[4-(4-Cyano-phenyl)-5-methylsulfanyl-pyrimidin-2-ylamino]-N-(2-methyl-5-morpholin-4-ylmethyl-phenyl)-benzamide] | < 0.1 | < 0.1 | 0.1 to 1
CSc1cnc(Nc2ccc(C(=O)Nc3cc(CN4CCN(C)CC4)ccc3C)cc2)cc1-c1ccc(C(F)(F)F)cc1 [Compound 90, N-(2-methyl-5-((4-methylpiperazin-1-yl)methyl)phenyl)-4-((5-(methylthio)-4-(4-(trifluoromethyl)phenyl)pyridin-2-yl)amino)benzamide] | < 0.1 | < 0.1 | 0.1 to 1
CCOc1cnc(Nc2ccc(C(=O)Nc3cc(CN4CCN(C)CC4)ccc3C)cc2)nc1-c1ccc(OC(F)(F)F)cc1 [Compound 73, 4-[5-Ethoxy-4-(4-trifluoromethoxy-phenyl)-pyrimidin-2-ylamino]-N-[2-methyl-5-(4-methyl-piperazin-1-ylmethyl)-phenyl]-benzamide] | < 0.1 | < 0.1 | 0.1 to 1
CSc1cnc(Nc2ccc(C(=O)Nc3ccc(C#N)cc3)cc2)nc1-c1cccnc1F [Compound 18, N-(4-Cyano-phenyl)-4-[4-(2-fluoro-pyridin-3-yl)-5-methylsulfanyl-pyrimidin-2-ylamino]-benzamide] | 0.1 to 1 | 0.1 to 1 | 0.1 to 1
CCOc1cnc(Nc2ccc(C(=O)Nc3cc(CN(CC)CC)ccc3C)cc2)nc1-c1ccc(F)cc1 [Compound 77, N-(5-Diethylaminomethyl-2-methyl-phenyl)-4-[5-ethoxy-4-(4-fluoro-phenyl)-pyrimidin-2-ylamino]-benzamide] | < 0.1 | < 0.1 | 0.1 to 1
CSc1cnc(Nc2ccc(C(=O)Nc3cc(CN4CCN(C)CC4)ccc3C)cc2)nc1-c1ccc(C#N)cc1 [Compound 35, 4-[4-(4-Cyano-phenyl)-5-methylsulfanyl-pyrimidin-2-ylamino]-N-[2-methyl-5-(4-methyl-piperazin-1-ylmethyl)-phenyl]-benzamide] | < 0.1 | < 0.1 | 0.1 to 1
CSc1cnc(Nc2ccc(C(=O)Nc3cc(CN4CCOCC4)ccc3C)cc2)nc1-c1ccc(C(F)(F)F)cc1 [Compound 27, N-(2-Methyl-5-morpholin-4-ylmethyl-phenyl)-4-[5-methylsulfanyl-4-(4-tiifluoromethyl-phenyl)-pyrimidin-2-ylamino]-benzamide] | < 0.1 | < 0.1 | 0.1 to 1
CSc1cnc(Nc2ccc(C(=O)Nc3cc(CN4CCOCC4)ccc3C)cc2)cc1-c1ccc(F)cc1 [Compound 84, 4-((4-(4-fluorophenyl)-5-(methylthio)pyridin-2-yl)amino)-N-(2-methyl-5-(morpholinomethyl)phenyl)benzamide] | < 0.1 | < 0.1 | 0.1 to 1

More lines, now with the values ahead:

IC50 [1] [µM] | IC50 (Smo wild type) [µM] | IC50 (Smo D473H mutant) [µM] | SMILES
0.1 to 1 | 0.1 to 1 | 0.1 to 1 | CSc1cnc(Nc2ccc(C(=O)Nc3ccccc3)cc2)nc1-c1cccnc1F [Compound 5, 4-[4-(2-Fluoro-pyridin-3-yl)-5-methylsulfanyl-pyrimidin-2-ylamino]-N-phenyl-benzamide]
< 0.1 | 0.1 to 1 | 0.1 to 1 | CSc1cnc(Nc2ccc(C(=O)Nc3cc(CN(C)C)ccc3C)cc2)nc1-c1ccc(OC(F)(F)F)cc1 [Compound 54, N-(5-Dimethylaminomethyl-2-methyl-phenyl)-4-[5-methylsulfanyl-4-(4-trifluoromethoxy-phenyl)-pyrimidin-2-ylamino]-benzamide]
< 0.1 | < 0.1 | 0.1 to 1 | CSc1cnc(Nc2ccc(C(=O)Nc3cc(CN4CCOCC4)ccc3C)cc2)nc1-c1ccc(F)cc1 [Compound 30, 4-[4-(4-Fluoro-phenyl)-5-methylsulfanyl-pyrimidin-2-ylamino]-N-(2-methyl-5-morpholin-4-ylmethyl-phenyl)-benzamide]
0.1 to 1 | 0.1 to 1 | 0.1 to 1 | COc1cccc(C)c1NC(=O)c1ccc(Nc2ncc(SC)c(-c3ccc(F)nc3)n2)c(F)c1 [Compound 17, 3-Fluoro-4-[4-(6-fluoro-pyridin-3-yl)-5-methylsulfanyl-pyrimidin-2-ylamino]-N-(2-methoxy-6-methyl-phenyl)-benzamide]
< 0.1 | 0.1 to 1 | 0.1 to 1 | COc1cccc(C)c1NC(=O)c1ccc(Nc2ncc(SC)c(-c3cccnc3F)n2)cc1 [Compound 14, 4-[4-(2-Fluoro-pyridin-3-yl)-5-methylsulfanyl-pyrimidin-2-ylamino]-N-(2-methoxy-6-methyl-phenyl)-benzamide]
< 0.1 | < 0.1 | < 0.1 | CCN(CC)Cc1ccc(C)c(NC(=O)c2ccc(Nc3ncc(SC)c(-c4ccc(F)cc4)n3)c(F)c2)c1 [Compound 53, N-(5-Diethylaminomethyl-2-methyl-phenyl)-3-fluoro-4-[4-(4-fluoro-phenyl)-5-methylsulfanyl-pyrimidin-2-ylamino]-benzamide]
0.1 to 1 | 0.1 to 1 | 0.1 to 1 | CSc1cnc(Nc2ccc(C(=O)Nc3c(C)cccc3C)cc2F)nc1-c1cccnc1F [Compound 12, N-(2,6-Dimethyl-phenyl)-3-fluoro-4-[4-(2-fluoro-pyridin-3-yl)-5-methylsulfanyl-pyrimidin-2-ylamino]-benzamide]

Reference: patent publication US10793542B2, “Hetroarylamine compounds for modulating the hedgehog pathway and preparing method and uses thereof” (DEVELOPMENT CENTER FOR BIOTECHNOLOGY, priority 2016, dated 2020)
